pEC50: −log10 of the molar value. Read-outs that look alike come from different tables or passages of the source.
Biological target: T1, Human GLP-1 receptor (Homo sapiens, UniProt P43220)
T1 construct: expressed in transfected cells
Assay: Measurement of GLP-1 receptor agonist activity (cAMP assay)
Assay type: cell-based
Method in brief: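 hGLP-1R/CHO-K1 cells in HBSS with 0.1% BSA, 20 mM HEPES, 0.1 mM IBMX and 0.2 mM RO20-1724 exposed to compound plus forskolin (400 μM stock) for 1 h at 37 °C. Intracellular cAMP read by HTRF (cAMP-d2/anti-cAMP cryptate, 1 h at room temperature).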

[1] = CHO-K1, hGLP-1R/CHO-K1 cells, cAMP, 100% = human GLP-1 (7-36) at 2 nM, 0% = DMSO only, read-out: Emax(%)
[2] = hGLP-1R/CHO-K1 cells, cAMP increase, 37° C. 1 hour
[3] = CHO-K1, maximum effect, cAMP increase in GLP-1 R/CHO-K1 cells, 2 nM human GLP-1 (7-36) = 100%, DMSO only = 0%, read-out: Emax
[4] = cAMP increase in GLP-1 R/CHO-K1 cells, 2 nM human GLP-1 (7-36) = 100%, DMSO only = 0%

T1 sequence (P43220 24-463): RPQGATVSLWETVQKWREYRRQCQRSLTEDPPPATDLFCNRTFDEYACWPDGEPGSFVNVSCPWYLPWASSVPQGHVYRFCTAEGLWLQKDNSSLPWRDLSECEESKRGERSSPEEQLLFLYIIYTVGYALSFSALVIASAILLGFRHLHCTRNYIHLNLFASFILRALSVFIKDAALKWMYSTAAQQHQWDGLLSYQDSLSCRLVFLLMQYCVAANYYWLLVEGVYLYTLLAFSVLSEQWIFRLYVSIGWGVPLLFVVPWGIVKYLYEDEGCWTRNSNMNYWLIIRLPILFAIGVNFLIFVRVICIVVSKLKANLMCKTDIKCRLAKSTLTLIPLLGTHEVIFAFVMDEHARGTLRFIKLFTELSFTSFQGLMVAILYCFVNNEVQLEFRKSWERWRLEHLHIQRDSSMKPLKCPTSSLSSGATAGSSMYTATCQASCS

Structure (SMILES) | Emax [1] [%] | pEC50 [2] | Emax [3] [%] | pEC50 [4] | Emax(%) (hGLP-1R/CHO-K1 cells, cAMP, 100% = human GLP-1 (7-36) at 2 nM, 0% = DMSO only)
COc1cc(C(=O)O)cc2c1nc(CN1CCc3cc(C(F)(F)F)c(OCc4ccc(Cl)cc4F)cc3[C@@H]1C)n2C[C@@H]1CCO1 [Compound I-189] | 122 | 10.19 | – | – | –
C[C@H]1c2cc(OCc3ccc(F)cc3F)c(Cl)cc2CCN1Cc1nc2c(F)cc(C(=O)O)cc2n1C[C@@H]1CCO1 [Compound I-335] | – | – | 98 | 8.91 | –
O=C(O)c1cc(F)c2nc(CN3CCc4cc(C(F)(F)F)c(OCc5ccc(F)cc5F)nc4C3)n(C[C@@H]3CCO3)c2c1 [Compound I-383] | – | – | 109 | 9.29 | –
C[C@H]1c2nc(OCc3ccc(Cl)cc3F)c(C(F)F)cc2CCN1Cc1nc2ccc(C(=O)O)cc2n1C[C@@H]1CCO1 [Compound I-394] | – | – | 108 | 10.30 | –
C[C@H]1c2cc(OCc3c(F)cc(F)cc3F)c(C(F)(F)F)cc2CCN1Cc1nc2ccc(C(=O)O)c(F)c2n1C[C@@H]1CCO1 [Compound I-126] | 99.7 | – | – | – | 98.7
O=C(O)c1ccc2nc(Cc3cc4nc(OCc5ccc(Cl)cc5F)c(C(F)(F)F)nc4cc3F)n(C[C@@H]3CCO3)c2c1 [Compound I-128] | 81.3 | 7.39 | – | – | –
O=C(O)c1ccc2nc(CN3CCc4cc(C(F)(F)F)c(OCc5ccc(Cl)cc5C(F)(F)F)cc4C3)n(C[C@@H]3CCO3)c2c1 [Compound I-100] | 90.7 | 7.02 | – | – | –
O=C(O)c1ccc2nc(CN3CCc4cc(C(F)(F)F)c(OCc5ccc(OC(F)(F)F)cc5)cc4C3)n(C[C@@H]3CCO3)c2c1 [Compound I-084] | 106 | 7.04 | – | – | –
O=C(O)c1ccc2nc(Cc3ccc4nc(C(F)(F)F)c(OCc5ccc(Cl)cc5F)nc4c3)n(C[C@@H]3CCO3)c2c1 [Compound I-076] | 108 | 8.80 | – | – | –
O=C(O)c1ccc2nc(CN3CCc4cc(C(F)(F)F)c(OCc5ccccc5Cl)cc4C3)n(C[C@@H]3CCO3)c2c1 [Compound I-090] | 106 | 8.18 | – | – | –
C[C@H]1c2cc(OCc3ccc(Cl)cc3Cl)c(Cl)cc2CCN1Cc1nc2ccc(C(=O)O)cc2n1C[C@@H]1CCO1 [Compound I-311] | – | – | 124 | 9.01 | –
O=C(O)c1ccc2nc(CN3CCc4cc(C(F)(F)F)c(OCc5ccc(F)c(F)c5F)cc4C3)n(C[C@@H]3CCO3)c2c1 [Compound I-094] | 102 | 7.55 | – | – | –
O=C(O)c1ccc2nc(CN3CCc4cc(C(F)(F)F)c(OCc5ccc(Cl)cc5F)cc4C3)n(C[C@@H]3CCO3)c2c1Cl [Compound I-078] | 112 | 7.54 | – | – | –
C[C@H]1c2nc(OCc3cc(F)c(Cl)cc3F)c(C(F)(F)F)cc2CCN1Cc1nc2c(F)cc(C(=O)O)cc2n1C[C@@H]1CCO1 [Compound I-246] | – | – | 120 | 10.58 | –
Cc1ccc(COc2cc3c(cc2C(F)(F)F)CCN(Cc2nc4ccc(C(=O)O)cc4n2C[C@@H]2CCO2)C3)nc1 [Compound I-136] | 107 | 8.24 | – | – | –
COc1cc(C(=O)O)cc2c1nc(CN1CCc3cc(C(F)(F)F)c(OCc4cc(F)c(Cl)cc4F)nc3[C@@H]1C)n2C[C@@H]1CCO1 [Compound I-378] | – | – | 95.3 | 10.84 | –
C[C@H]1c2cc(OCc3ccc(Cl)cc3Cl)c(C(F)(F)F)cc2CCN1Cc1nc2c(F)cc(C(=O)O)cc2n1C[C@@H]1CCO1 [Compound I-211] | 103 | 9.74 | – | – | –
C[C@H]1c2cc(OCc3ccc(C#N)cc3)c(C(F)(F)F)cc2CCN1Cc1nc2ccc(C(=O)O)c(F)c2n1C[C@@H]1CCO1 [Compound I-113] | 124 | 8.84 | – | – | –
C[C@H]1c2nc(OCc3ccccc3Cl)c(C(F)(F)F)cc2CCN1Cc1nc2ccc(C(=O)O)cc2n1C[C@@H]1CCO1 [Compound I-253] | – | – | 119 | 9.44 | –
C[C@H]1c2cc(OCc3ccc(Cl)cc3F)c(C(F)F)cc2CCN1Cc1nc2ccc(C(=O)O)cc2n1C[C@@H]1CCO1 [Compound I-261] | – | – | 105 | 8.90 | –
C[C@H]1c2cc(OCc3ccc(C#N)cc3F)c(C(F)(F)F)cc2CCN1Cc1nc2c(F)cc(C(=O)O)cc2n1C[C@@H]1CCO1 [Compound I-214] | 104 | 9.41 | – | – | –
C[C@H]1c2cc(OCc3cc(F)c(Cl)cc3F)c(C(F)(F)F)cc2CCN1Cc1nc2c(F)cc(C(=O)O)cc2n1C[C@@H]1CCO1 [Compound I-213] | 122 | 9.44 | – | – | –
CCn1cncc1Cn1c(CN2CCc3cc(C)c(OCc4ccc(Cl)cc4F)cc3C2)nc2ccc(C(=O)O)cc21 [Compound I-002] | 92.2 | 7.36 | – | – | –
C[C@H]1c2nc(OCc3ccc(C#N)cc3F)c(C(F)(F)F)cc2CCN1Cc1nc2ccc(C(=O)O)c(F)c2n1C[C@@H]1CCO1 [Compound I-240] | – | – | 122 | 10.19 | –
C[C@H]1c2nc(OCc3ccccc3Cl)c(C(F)(F)F)cc2CCN1Cc1nc2ccc(C(=O)O)nc2n1C[C@@H]1CCO1 [Compound I-287] | – | – | 116 | 9.99 | –

Continued, values first:

Emax [1] [%] | pEC50 [2] | Emax [3] [%] | pEC50 [4] | Emax(%) (hGLP-1R/CHO-K1 cells, cAMP, 100% = human GLP-1 (7-36) at 2 nM, 0% = DMSO only) | Structure (SMILES)
– | – | 123 | 10.40 | – | C[C@H]1c2nc(OCc3ccc(Cl)cc3Cl)c(C(F)(F)F)cc2CCN1Cc1nc2c(F)cc(C(=O)O)cc2n1C[C@@H]1CCO1 [Compound I-244]
101 | 8.12 | – | – | – | O=C(O)c1ccc2nc(CN3CCc4cc(C(F)(F)F)c(OCc5ccc(C(F)F)cc5)cc4C3)n(C[C@@H]3CCO3)c2c1 [Compound I-081]
103 | 8.63 | – | – | – | O=C(O)c1ccc2nc(CN3CCc4cc(C(F)(F)F)c(OCc5c(F)cc(OC(F)F)cc5F)cc4C3)n(C[C@@H]3CCO3)c2c1 [Compound I-217]
– | – | 102 | 9.99 | – | COc1cc(C(=O)O)cc2c1nc(CN1CCc3cc(C(F)(F)F)c(OCc4c(F)cc(Cl)cc4F)cc3[C@@H]1C)n2C[C@@H]1CCO1 [Compound I-237]
– | – | 87.3 | 8.76 | – | C[C@H]1c2cc(OCc3c(F)cc(F)cc3F)c(Cl)cc2CCN1Cc1nc2ccc(C(=O)O)c(F)c2n1C[C@@H]1CCO1 [Compound I-328]
75.7 | 7.70 | – | – | – | O=C(O)c1ccc2nc(CN3CCc4cc(Br)c(OCc5ccc(Cl)cc5F)cc4C3)n(C[C@@H]3CCO3)c2c1 [Compound I-007]
– | – | 112 | – | – | O=C(O)c1cc(F)c2nc(CN3CCc4cc(C(F)(F)F)c(OCc5ccc(Cl)cc5F)nc4C3)n(C[C@@H]3CCO3)c2c1 [Compound I-385]
116 | 8.01 | – | – | – | Fc1cc(Cl)ccc1COc1cc2c(cc1C(F)(F)F)CCN(Cc1nc3ccc(-c4nnn[nH]4)cc3n1C[C@@H]1CCO1)C2 [Compound I-065]
– | – | 119 | 9.17 | – | COc1cc(Cl)ccc1COc1nc2c(cc1C(F)(F)F)CCN(Cc1nc3ccc(C(=O)O)nc3n1C[C@@H]1CCO1)C2 [Compound I-303]
– | – | 98.3 | 9.27 | – | COc1cc(Cl)ccc1COc1cc2c(cc1Cl)CCN(Cc1nc3ccc(C(=O)O)nc3n1C[C@@H]1CCO1)[C@H]2C [Compound I-314]
– | – | 121 | 8.63 | – | O=C(O)c1ccc2nc(CN3CCc4cc(C(F)(F)F)c(OCc5ccc(Cl)cc5)nc4C3)n(C[C@@H]3CCO3)c2c1 [Compound I-264]
81.3 | 7.56 | – | – | – | Cc1cc2c(cc1OCc1ccc(Cl)cc1F)CN(Cc1nc3ccc(C(=O)O)nc3n1C[C@@H]1CCO1)CC2 [Compound I-009]
– | – | 115 | 10.06 | – | C[C@H]1c2nc(OCc3ccc(F)cc3)c(C(F)(F)F)cc2CCN1Cc1nc2ccc(C(=O)O)c(F)c2n1C[C@@H]1CCO1 [Compound I-308]

Source: US20240217966A1, “PHARMACEUTICAL COMPOSITION CONTAINING GLP-1 RECEPTOR AGONIST HAVING FUSED RING” (Shionogi & Co., Ltd., priority 2021, published 2024)
